“Also recorded” adds a separate entry of the source.
Key:
[1] = tested on: SiHa cells; test: MTT cytotoxicity assay; assay type: cell-based; details: 50 μM AA, preliminary studies, unpublished data
[2] = tested on: SiHa cells; test: Cell cycle analysis of synchronized cells (PI, flow cytometry); assay type: cell-based; details: 24 h
Experimental: (§1) Cells were synchronized by serum-starvation (1% serum) for 48 h and then cultured in medium containing 10% FCS for 24 h. After this, the cells were incubated with 0, 20 and 40 μM AA for 24. These doses were chosen since apoptosis induction was highest at 40 μM (the dose was limited to 40 μM in the following studies). The cells were collected and disrupted and the nuclei labelled for DNA content with PI by re-suspension in sodium citrate buffer [40 mM Na-citrate, 0.3% Triton X-100, 50 μg/ml PI (Sigma-Aldrich)]. After incubation at room temperature for 10 min, the samples were immediately analyzed by FACSCalibur flow cytometry.

[3] = tested on: c33a cells; test: His-tag E6 plasmid transfection of c33a cells, Western blot and FACS; assay type: cell-based; details: 70 μM AA
Experimental: c33a cells were pelleted and resuspended in OPTIMEM (Gibco, Invitrogen Foundation, Washington D.C., USA) and electroporated with mock or His-tag E6 plasmid at 220 V and 975 μF. Twenty four hours post-transfection, the culture medium was changed and the cells were treated with AA or left untreated, after which the cells were cultured for another 24 h or 48 h for further analysis adopting Western blotting and cell death assay by FACS.

[4] = tested on: SiHa cells; test: Propidium iodide detection of permeabilized (necrotic) cells; assay type: cell-based; details: AA doses greater than 40 μM
Experimental: For detection of permeabilized (necrotic) cells, the cells were trypsinized and resuspended in 50 μg/ml Propidium Iodide (PI) (Sigma-Aldrich) in PBS for 10 minutes at room temperature. The samples were analyzed by flow cytometry.

[5] = Solubility; assay type: physicochemical
[6] = tested on: caspase-9, caspase-8, caspase-3 and PARP; test: Western blotting for cleavage of caspases and PARP; assay type: cell-based; details: SiHa lysates
Experimental: Whole cell lysates were prepared by lysing the cells in Laemmli sample buffer (Laemmli, 1970) and boiling the samples for 10 min after which proteins were separated in 12.5-15% SDS-PAGE. Western blotting was performed using antibodies against poly (ADP-ribose) polymerase (clone C-2-10; Sigma-Aldrich), Bid, Bax, caspase 8, caspase 9, caspase 3, SAPK/JNK, Phospho SAPK/JNK (Thr183/Tyr185), cIAP2 (Enzo Lifesciences), Akt, Phospho Akt(Ser473) (Cell Signalling Technology, Davers, Mass., USA), p21, Bcl-xL (Santa Cruz Biotechnology, Inc, Santa Cruz, Calif.), β-actin (clone AC-40; Sigma-Aldrich) and p53 (clone DO-1; BD Pharmingen). Horseradish peroxidase-conjugated secondary antibodies were obtained from Southern Biotechnology Associates (Birmingham, Ala.), Promega (Madison, Wis.) and Amersham Biosciences (Freiburg, Germany). The results were visualized using the ECL method (Amersham Biosciences) on X-ray film. The presented Western blot results are representative of at least three independent experiments.

[7] = tested on: c33a cells; test: Apoptosis analysis in c33a cells; assay type: cell-based; details: HPV negative c33a cells (p53−), 40 μM AA, 48 h
Experimental: (§2) SiHa cells were treated with 0-50 μM AA or solvent control at 10 μM interval. […] Fourty eight hours later, the cells were collected and analyzed for apoptosis and/or necrosis. Activated caspase-3 in cells was labeled with phyco-erythrin-conjugated antibody according to manufacturer's protocol (PE Active Caspase-3 Apoptosis Kit; BD Pharmingen, San Diego, Calif.) and analyzed by FACSCalibur flow cytometer (FL-2, FSC, BD Pharmingen).
(§3) HeLa, Caski, c33a, MCF7, MDA-MB-231 and MEF cells were treated with 0 and 40 μM AA. Forty eight hours later, the cells were collected and analyzed for apoptosis.

[8] = tested on: Caski cells; test: Apoptosis analysis in Caski cells; assay type: cell-based; details: HPV positive Caski cells (p53+), 40 μM AA, 48 h
Experimental: as §2, §3

[9] = tested on: MCF7 cells; test: Apoptosis analysis in MCF7 cells; assay type: cell-based; details: breast cancer MCF7 cells (p53+), 40 μM AA, 48 h
Experimental: as §2, §3

[10] = tested on: HeLa cells; test: Apoptosis analysis in HeLa cells; assay type: cell-based; details: HPV positive HeLa cells (p53+), 40 μM AA, 48 h
Experimental: as §2, §3

[11] = tested on: SiHa cells with p53 down-regulated by p53-shRNA; test: RNA interference: p53-shRNA SiHa cells treated with AA; assay type: cell-based
Experimental: as §1
The pSUPER vector (SEQ ID NO: 1) (Oligoengine, Seattle, Wash., USA) for expression of human p53 targeted shRNA (5′[…] AGUCUU3′, Brummelkamp et al., 2002) was kindly provided by Dr. Pia Roos-Mattjus. The scramble (Scr) pSUPER vector (SEQ ID NO: 2) (5′GCG CGC TTT GTA GGA TTC G3′, Ostling et al., 2007) was transfected to control cells. Trypsinized SiHa cells were transfected with the shRNA expression plasmids by electroporation in Opti-MEM media (Gibco, Calif., USA). Twenty four hours post-transfection, the culture medium was changed and the cells were treated with AA or left untreated, after which the cells were cultured for another 24 h or 48 h. The efficiency of the shRNA expression vector was determined by Western blotting for p53 expression.
Whole cell lysates were prepared by lysing the cells in Laemmli sample buffer (Laemmli, 1970) and boiling the samples for 10 min after which proteins were separated in 12.5-15% SDS-PAGE. Western blotting was performed using antibodies against poly (ADP-ribose) polymerase (clone C-2-10; Sigma-Aldrich), Bid, Bax, caspase 8, caspase 9, caspase 3, SAPK/JNK, Phospho SAPK/JNK (Thr183/Tyr185), cIAP2 (Enzo Lifesciences), Akt, Phospho Akt(Ser473) (Cell Signalling Technology, Davers, Mass., USA), p21, Bcl-xL (Santa Cruz Biotechnology, Inc, Santa Cruz, Calif.), β-actin (clone AC-40; Sigma-Aldrich) and p53 (clone DO-1; BD Pharmingen). […]

[12] = tested on: Mouse Embryonic Fibroblasts (MEF); test: Cell death analysis in MEF cells; assay type: cell-based; details: non-cancerous MEF cells, 40 μM AA
Experimental: as §2, §3

[13] = tested on: MDA-MB-231 cells; test: Apoptosis analysis in MDA-MB-231 cells; assay type: cell-based; details: breast cancer MDA-MB-231 cells (p53−), 40 μM AA, 48 h
Experimental: as §2, §3

[14] = tested on: SiHa cells; test: Mitochondrial depolarization by TMRM labeling; assay type: cell-based; details: 20-40 μM AA, 8-48 h
Experimental: Tetramethylrhodamine, methyl ester (TMRM, Invitrogen, Cergy Pontoise, France) was stored as 20 mM dimethylsulfoxide stock and diluted in medium before use. The cells were incubated in 20 nM tetramethylrhodamine for 10 min in 37° C. water bath. The cells were placed on ice and analyzed immediately by FACSCalibur flow cytometry.

[15] = tested on: SiHa cells; test: PE active caspase-3 apoptosis assay by FACS; assay type: cell-based
Experimental: as §2, with “Pharmingen). SiHa cells were also tested with 40 μM AA and AA emulsion for 24 and 48 h. The cells were collected and analyzed for apoptosis adopting PE active caspase-3 assay by FACS.” for “Pharmingen).”

## C=C1C(=O)O[C@H]2/C=C(\C)CC/C=C(\C(=O)O)CC/C=C(\C)CC[C@H]12 [AA, Anisomelic acid]
[1]
  killing: ≥ 95%
[2]; 20 and 40 μM AA
  cell cycle distribution: accumulated at the G2/M phase
[2]
  dose at which G2/M arrest occurred more effectively: 20 µM
[3]; c33a cells transfected with His-tag E6 vs mock
  AA-induced apoptosis after E6 transfection: rescued c33a cells from apoptsis significantly
[3]; c33a cells
  apoptosis induction: undergo apoptosis
[4]
  cell permeabilization by PI labeling (necrotic cell death): could not detect increased cell permeabilization
[5]
  solubility in DMSO and hot ethanol: dissolves
  solubility in water or other aqueous solvents: mostly insoluble
[6]; 20-40 μM AA
  cleavage of caspase-3 and PARP: induced the cleavage of caspase-3 and poly-ADP-ribose polymerase (PARP)
[6]; 20 and 40 μM AA
  cleavage of procaspase-9 into 35/37 kDa fragments: seen after 12 h incubation
[6]; AA treatment
  cleavage of procaspase-8: observed abundantly only after 24 h
[7]
  apoptosis induction: significantly less; also recorded: do not undergo apoptosis
[8]
  apoptosis induction: effectively induced apoptosis
[9]
  apoptosis induction: failed to induce effective apoptosis
[10]
  apoptosis induction: effectively induced apoptosis
[11]; SiHa cells in the absence of p53 expression, 40 μM AA
  percentage of AA-induced apoptosis (caspase-3 activation, flow cytometry): did not observe any significant decrease
[11]; p53-shRNA SiHa cells, 40 μM & 20 μM AA respectively
  induction of p53 and p21 proteins by AA: abrogated
[11]; p53-shRNA SiHa cells, 24 h after start of AA treatment
  AA-induced cell cycle arrest: no longer accumulated at the G2/M phase
[12]
  cell death: failed to induce cell death
[13]
  apoptosis induction: failed to induce effective apoptosis
[14]
  mitochondrial membrane depolarization: occured in a time-dependent manner
[15]; SiHa cells
  time at which maximum percentage of apoptosis was achieved: 48 h
[15]; SiHa, 40 μM AA, 48 h
  cells that contained activated caspase-3 as a measure of apoptosis: marked activation of caspase-3
[15]; SiHa, AA doses greater than 40 μM
  caspase-3 cleavage: reduced caspase-3 cleavage dramatically

## Z-VAD.fmk [reference compound]
[15]; SiHa, pre-incubation with 40 μM Z-VAD.fmk prior to 40 μM AA, data not shown
  effect on AA-induced caspase-3 activation: reversed caspase-3 activation and apoptotic cell morphology

Reference: patent US9623002B2, “Pharmaceutical compositions of Anisomelic acid and the use thereof” (priority 2012, dated 2017)
